Experimental data reported in US6355657B1, “System for percutaneous delivery of opioid analgesics” (Atrix Laboratories, Inc., priority 1998, dated 2002).
Where “and” joins values, the source holds several entries; their conditions need not be identical. Identical values can stand only once. Counter-ions that a name gives are not always drawn. Like-named read-outs stand apart in the source and are kept apart here.

What was measured:
[1] = Solubility of loperamide hydrochloride in solvents and solvent mixtures (titration to cloud point, HPLC of saturated solutions); format: physicochemical
Description: The solubility studies of loperamide hydrochloride were initiated using the formulation systems shown in Table I through multiple titrations confirmned by HPLC analysis of saturated solutions. For systems having at least 5% loperamide hydrochloride solubility, the transport of loperamide hydrochloride across the skin was characterized by 500 μL and 20 μL dosing of excised human cadaver skin using a Franz in vitro skin diffusion cell.
Solvent systems were mixed according to weight. For combinations of solvents that were single phase, loperamide hydrochloride was added in 0.1% increments until the system clouded. This was taken as the approximate saturation value for loperamide hydrochloride in that system. The system was then allowed to remain undisturbed for at least 24 hours. Often large crystals of loperamide hydrochloride would form upon standing. This solution was then filtered, appropriately diluted and assayed according to the HPLC method described below.

[2] = Solubility of loperamide hydrochloride in the receptor solution (spiked receptor solutions); format: physicochemical; conditions: 10% (v/v) N-methyl-2-pyrrolidone in water
Text: The receptor solution was 10% (v/v) N-methyl-2-pyrrolidone in water.

[3] = cited from earlier work

CN(C)C(=O)C(CCN1CCC(O)(c2ccc(Cl)cc2)CC1)(c1ccccc1)c1ccccc1 [loperamide hydrochloride, 4-(p-chlorophenyl)-4-hydroxy-N,N-dimethyl-α,(α-diphenyl-1-piperidinebutyramide hydrochloride]
loperamide hydrochloride solubility ([1]; 1:1:1 propylene glycol:ethanol:ethyl acetate): greater than 5 % (w/w) | loperamide hydrochloride solubility ([1]; 1:1:4:3 N-methyl-2-pyrrolidone:propylene glycol:alcohol:water): greater than 6 % (w/w) | loperamide hydrochloride solubility ([1]; 1:1:4:5 N-methyl-2-pyrrolidone:ethyl acetate:ethanol:water): greater than 5 % (w/w) | loperamide hydrochloride solubility ([1]; 10% (v/v) water, 18% (v/v) N-methyl-2-pyrrolidone and 72% (v/v) ethanol ternary blend (FIG. 4)): 19 % (w/w) | loperamide hydrochloride solubility ([1]; 60/40 propylene glycol/ethyl acetate solvent blend (FIG. 2)): 18 % (w/w) | loperamide hydrochloride solubility ([1]; combination of propylene carbonate and ethanol, ratio not stated (FIG. 1)): exceeded 20 % (w/w) | loperamide hydrochloride in solution ([1]; formulations of mixtures of water, alcohols and organic solvents, ambient temperatures): up to 30 % (w/w) | loperamide hydrochloride solubility ([1]; most non-aqueous organic solvents (exceptions NMP, propylene glycol, ethanol)): less than 1 % (w/w) | Loperamide hydrochloride Solubility (w/w) ([1]; solvent Ethanol, hydrochloride): 10 % (w/w) | Loperamide hydrochloride Solubility (w/w) ([1]; solvent Isopropyl Myristate): 0.001% (w/w) | Loperamide hydrochloride Solubility (w/w) ([1]; solvent N-methyl-2-pyrrolidone, hydrochloride): 16 % (w/w) | Loperamide hydrochloride Solubility (w/w) ([1]; solvent Propylene Glycol, hydrochloride): 9 % (w/w) and 8 % (w/w) | loperamide hydrochloride solubility ([1]; the solvents of Table 1 except N-methyl-2-pyrrolidone, ethanol and propylene glycol): ≤ 0.5 % (w/w) | solubility of loperamide hydrochloride in receptor solution [2]: greater than 380 ppm | solubility ([3]; 2-butanone): 0.18 grams per 100 mL solvent | solubility ([3]; 2-propanol): 1.11 grams per 100 mL solvent | solubility ([3]; 4-methyl-2-pentanone): 0.020 grams per 100 mL solvent | solubility ([3]; N,N-dimethylformamide): 10.3 grams per 100 mL solvent | solubility ([3]; acetone): 0.20 grams per 100 mL solvent | solubility ([3]; citrate-phosphate buffer (pH 6.1)): 0.008 grams per 100 mL solvent | solubility ([3]; citrate-phosphate buffer (pH 7.9)): less than 0.001 grams per 100 mL solvent | solubility ([3]; dichloromethane): 35.1 grams per 100 mL solvent | solubility ([3]; diethyl ether): less than 0.001 grams per 100 mL solvent | solubility ([3]; dimethylsulfoxide): 20.5 grams per 100 mL solvent | solubility ([3]; ethanol): 5.37 grams per 100 mL solvent | solubility ([3]; ethyl acetate): 0.035 grams per 100 mL solvent | solubility ([3]; hexane): less than 0.001 grams per 100 mL solvent | solubility ([3]; methanol): 28.6 grams per 100 mL solvent | solubility ([3]; polyethylene glycol 400): 1.40 grams per 100 mL solvent | solubility ([3]; propylene glycol): 5.64 grams per 100 mL solvent | solubility ([3]; tetrahydrofuran): 0.32 grams per 100 mL solvent | solubility ([3]; toluene): 0.001 grams per 100 mL solvent | solubility ([3]; water (at physiological pH)): 0.002 grams per 100 mL solvent | solubility ([3]; water (pH 1.7)): 0.14 grams per 100 mL solvent
